Source: patent publication US20100298141A1, “SUBSTITUTED PYRIDINE N-OXIDE HERBICIDES” (E. I. DU PONT DE NEMOURS AND COMPANY, priority 2007, published 2010)

What was measured:
Test in all cases: Test A pre-/postemergence greenhouse test
barnyardgrass = type: in vivo, Echinochloa crus-galli; conditions: for Plant response rating, Barnyardgrass: 0 to 100 scale where 0 is no effect and 100 is complete control; for Barnyardgrass plant response rating: 0 to 100 scale
Source text: (§1) Seeds of barnyardgrass (Echinochloa crus-galli), crabgrass (Digitaria sanguinalis), giant foxtail (Setaria faberi), morningglory (Ipomoea spp.), redroot pigweed (Amaranthus retroflexus), velvetleaf (Abutilon theophrasti), wheat (Triticum aestivum), and corn (Zea mays) were planted into a blend of loam soil and sand and treated preemergence with a directed soil spray using test compounds formulated in a non-phytotoxic solvent mixture which included a surfactant. At the same time these species were also treated with postemergence applications of test compounds formulated in the same manner. Plants ranged in height from two to ten cm and were in the one- to two-leaf stage for the postemergence treatment. Treated plants and untreated controls were maintained in a greenhouse for approximately ten days, after which time all treated plants were compared to untreated controls and visually evaluated for injury. […] A dash (-) response means no test results.

crabgrass = type: in vivo, Digitaria sanguinalis; conditions: for Plant response rating, Crabgrass, Large: 0 to 100 scale where 0 is no effect and 100 is complete control; for Crabgrass, Large plant response rating: 0 to 100 scale
Source text: as §1

giant foxtail = type: in vivo, Setaria faberi; conditions: for Plant response rating, Foxtail, Giant: 0 to 100 scale where 0 is no effect and 100 is complete control; for Foxtail, Giant plant response rating: 0 to 100 scale
Source text: as §1

morningglory = type: in vivo, Ipomoea spp.; conditions: for Plant response rating, Morningglory: 0 to 100 scale where 0 is no effect and 100 is complete control; for Morningglory plant response rating: 0 to 100 scale
Source text: as §1

redroot pigweed = type: in vivo, Amaranthus retroflexus; conditions: for Plant response rating, Pigweed: 0 to 100 scale where 0 is no effect and 100 is complete control; for Pigweed plant response rating: 0 to 100 scale
Source text: as §1

velvetleaf = type: in vivo, Abutilon theophrasti; conditions: for Plant response rating, Velvetleaf: 0 to 100 scale where 0 is no effect and 100 is complete control; for Velvetleaf plant response rating: 0 to 100 scale
Source text: as §1

wheat = type: in vivo, Triticum aestivum; conditions: for Plant response rating, Wheat: 0 to 100 scale where 0 is no effect and 100 is complete control; for Wheat plant response rating: 0 to 100 scale
Source text: as §1

corn = type: in vivo, Zea mays; conditions: for Plant response rating, Corn: 0 to 100 scale where 0 is no effect and 100 is complete control; for Corn plant response rating: 0 to 100 scale
Source text: as §1

[1] = Postemergence, 500 g ai/ha, 0 is no effect, 100 is complete control
[2] = Preemergence, 125 g ai/ha, 0 no effect, 100 complete control
[3] = Preemergence, 500 g ai/ha, 0 no effect, 100 complete control

Row | Structure (SMILES) | Plant response rating, Barnyardgrass (barnyardgrass; Postemergence, 125 g ai/ha) | Barnyardgrass plant response rating (barnyardgrass; [1]) | Barnyardgrass plant response rating (barnyardgrass; [2]) | Barnyardgrass plant response rating (barnyardgrass; [3]) | Plant response rating, Crabgrass, Large (crabgrass; Postemergence, 125 g ai/ha) | Crabgrass, Large plant response rating (crabgrass; [1]) | Crabgrass, Large plant response rating (crabgrass; [2]) | Crabgrass, Large plant response rating (crabgrass; [3]) | Plant response rating, Foxtail, Giant (giant foxtail; Postemergence, 125 g ai/ha) | Foxtail, Giant plant response rating (giant foxtail; [1]) | Foxtail, Giant plant response rating (giant foxtail; [2]) | Foxtail, Giant plant response rating (giant foxtail; [3]) | Plant response rating, Morningglory (morningglory; Postemergence, 125 g ai/ha) | Morningglory plant response rating (morningglory; [1]) | Morningglory plant response rating (morningglory; [2]) | Morningglory plant response rating (morningglory; [3]) | Plant response rating, Pigweed (redroot pigweed; Postemergence, 125 g ai/ha) | Pigweed plant response rating (redroot pigweed; [1]) | Pigweed plant response rating (redroot pigweed; [2]) | Pigweed plant response rating (redroot pigweed; [3]) | further results
1 | CC(C)c1cc[n+]([O-])c(S(=O)(=O)Cc2c(C(F)(F)F)nn(C)c2OCC(F)(F)F)c1 [Compound 111, 4-(1-methylethyl)-2-[[[1-methyl-5-(2,2,2-trifluoroethoxy)-3-trifluoromethyl-1H-pyrazol-4-yl]methyl]sulfonyl]pyridine 1-oxide] | 50 | 70 | 80 | 100 | 40 | 70 | 60 | 90 | 60 | 80 | 90 | 100 | 20 | 60 | 80 | 100 | 60 | 60 | 50 | 100 | Plant response rating, Velvetleaf (velvetleaf; Postemergence, 125 g ai/ha): 50; Velvetleaf plant response rating (velvetleaf; [1]): 60; Velvetleaf plant response rating (velvetleaf; [2]): 60; Velvetleaf plant response rating (velvetleaf; [3]): 100; Plant response rating, Wheat (wheat; Postemergence, 125 g ai/ha): 50; Wheat plant response rating (wheat; [1]): 60; Wheat plant response rating (wheat; [2]): 50; Wheat plant response rating (wheat; [3]): 80; Plant response rating, Corn (corn; Postemergence, 125 g ai/ha): 0; Corn plant response rating (corn; [1]): 40; Corn plant response rating (corn; [2]): 0; Corn plant response rating (corn; [3]): 50
2 | Cn1nc(C(F)(F)F)c(C[S+]([O-])c2cc(C3CC3)cc[n+]2[O-])c1OCC(F)(F)F (stereo not shown) [Compound 121] | 50 | 70 | 100 | 100 | 30 | 80 | 100 | 100 | 50 | 80 | 100 | 100 | 40 | 60 | 40 | 90 | 60 | 70 | 100 | 100 | Plant response rating, Velvetleaf (velvetleaf; Postemergence, 125 g ai/ha): 40; Velvetleaf plant response rating (velvetleaf; [1]): 70; Velvetleaf plant response rating (velvetleaf; [2]): 60; Velvetleaf plant response rating (velvetleaf; [3]): 80; Plant response rating, Wheat (wheat; Postemergence, 125 g ai/ha): 30; Wheat plant response rating (wheat; [1]): 50; Wheat plant response rating (wheat; [2]): 60; Wheat plant response rating (wheat; [3]): 100; Plant response rating, Corn (corn; Postemergence, 125 g ai/ha): 20; Corn plant response rating (corn; [1]): 60; Corn plant response rating (corn; [2]): 60; Corn plant response rating (corn; [3]): 90
3 | CCCc1cc[n+]([O-])c([S+]([O-])Cc2c(C(F)(F)F)nn(C)c2OCC(F)(F)F)c1 (stereo not shown) [Compound 114] | 50 | 80 | 90 | 100 | 50 | 80 | 90 | 100 | 80 | 90 | 100 | 100 | 60 | 70 | 70 | 90 | 70 | 90 | 100 | 100 | Plant response rating, Velvetleaf (velvetleaf; Postemergence, 125 g ai/ha): 50; Velvetleaf plant response rating (velvetleaf; [1]): 60; Velvetleaf plant response rating (velvetleaf; [2]): 60; Velvetleaf plant response rating (velvetleaf; [3]): 80; Plant response rating, Wheat (wheat; Postemergence, 125 g ai/ha): 50; Wheat plant response rating (wheat; [1]): 70; Wheat plant response rating (wheat; [2]): 60; Wheat plant response rating (wheat; [3]): 90; Plant response rating, Corn (corn; Postemergence, 125 g ai/ha): 60; Corn plant response rating (corn; [1]): 70; Corn plant response rating (corn; [2]): 30; Corn plant response rating (corn; [3]): 80
4 | CCCc1cc[n+]([O-])c(S(=O)(=O)Cc2c(C(F)(F)F)nn(C)c2OC(F)F)c1 [Compound 117] | 40 | 80 | 20 | 90 | 50 | 80 | 80 | 90 | 70 | 80 | 90 | 90 | 40 | 90 | 80 | 90 | 60 | 80 | 100 | 100 | Plant response rating, Velvetleaf (velvetleaf; Postemergence, 125 g ai/ha): 50; Velvetleaf plant response rating (velvetleaf; [1]): 60; Velvetleaf plant response rating (velvetleaf; [2]): 10; Velvetleaf plant response rating (velvetleaf; [3]): 90; Plant response rating, Wheat (wheat; Postemergence, 125 g ai/ha): 40; Wheat plant response rating (wheat; [1]): 50; Wheat plant response rating (wheat; [2]): 30; Wheat plant response rating (wheat; [3]): 70; Plant response rating, Corn (corn; Postemergence, 125 g ai/ha): 0; Corn plant response rating (corn; [1]): 40; Corn plant response rating (corn; [2]): 20; Corn plant response rating (corn; [3]): 60
5 | CCCc1cc[n+]([O-])c([S+]([O-])Cc2c(C(F)(F)F)nn(C)c2OC(F)F)c1 (stereo not shown) [Compound 116] | 70 | 80 | 70 | 100 | 70 | 80 | 90 | 100 | 80 | 90 | 100 | 100 | 60 | 90 | 100 | 100 | 70 | 90 | 100 | 100 | Plant response rating, Velvetleaf (velvetleaf; Postemergence, 125 g ai/ha): 50; Velvetleaf plant response rating (velvetleaf; [1]): 80; Velvetleaf plant response rating (velvetleaf; [2]): 0; Velvetleaf plant response rating (velvetleaf; [3]): 90; Plant response rating, Wheat (wheat; Postemergence, 125 g ai/ha): 50; Wheat plant response rating (wheat; [1]): 60; Wheat plant response rating (wheat; [2]): 50; Wheat plant response rating (wheat; [3]): 80; Plant response rating, Corn (corn; Postemergence, 125 g ai/ha): 60; Corn plant response rating (corn; [1]): 90; Corn plant response rating (corn; [2]): 60; Corn plant response rating (corn; [3]): 90
